Experimental data published in patent US20180230160A1, “2-AMINO-7A-PHENYL-3,4,4A,5,7,7A-HEXAHYDROFURO[3,4-B]PYRIDINES AS BACE1 INHIBITORS” (H. Lundbeck A/S, priority 2015, published 2018).
pKi: −log10 of the molar value.

Assays:
P-gp (MDR1) = assay: MDCK-MDR1 assay (permeability, efflux ratio); format: in vitro ADME; settings: dog, Papp BA/Papp AB, 60-minute incubation
Procedure: The permeability of the test compounds was assessed in MDCK-MDR1 cells that were cultured to confluency (4-6 days) in a 96 transwell plate. Test compounds were diluted with the transport buffer (HBSS+1% BSA) to a concentration of 0.5 μM and applied to the apical or basolateral side of the cell monolayer. Permeation of the test compounds from A to B direction or B to A direction was determined in triplicate over a 60-minute incubation time at 37° C. and 5% CO2 with a relative humidity of 95%. Test compounds were quantified by LC-MS/MS analysis based on the peaks area ratios of analyte/IS in both the receiver and donor wells of the transwell plate. The apparent permeability coefficient Papp (cm/s) was calculated using the equation: […]
Where dCr/dt is the cumulative concentration of compound in the receiver chamber as a function of time (μM/s); Vr is the solution volume in the receiver chamber (0.05 mL on the apical side; 0.25 mL on the basolateral side); A is the surface area for the transport, i.e. 0.0804 cm^2 for the area of the monolayer; CO is the initial concentration in the donor chamber (μM).

human BACE1 [1] = molecular target: T1, human BACE1 (Homo sapiens, UniProt P56817); assay: BACE1 binding assay (SPA-based radioligand binding); set-up: biotin (biotinylated form); made in house; host or cells: Freestyle HEK293 cells; settings: pH 4.5, 10 nM radioligand, Ki=IC50/(1+L/Kd)
T1 sequence (P56817 46-501): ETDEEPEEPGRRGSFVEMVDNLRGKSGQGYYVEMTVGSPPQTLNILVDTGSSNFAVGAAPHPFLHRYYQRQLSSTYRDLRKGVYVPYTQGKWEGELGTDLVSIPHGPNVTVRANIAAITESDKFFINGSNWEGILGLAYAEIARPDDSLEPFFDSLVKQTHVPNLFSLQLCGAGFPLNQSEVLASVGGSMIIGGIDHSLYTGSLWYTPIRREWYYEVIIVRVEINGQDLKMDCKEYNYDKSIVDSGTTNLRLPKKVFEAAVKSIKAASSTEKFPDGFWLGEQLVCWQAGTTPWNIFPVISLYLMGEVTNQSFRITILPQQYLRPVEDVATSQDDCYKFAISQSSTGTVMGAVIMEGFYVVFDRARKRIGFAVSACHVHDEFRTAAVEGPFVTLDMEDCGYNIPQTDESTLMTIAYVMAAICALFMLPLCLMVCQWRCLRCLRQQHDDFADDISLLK
Procedure: The binding assay was performed as SPA-based assay using a biotinylated form of human BACE1 recombinantly expressed and subsequently purified from Freestyle HEK293 cells. The binding assay was run in a 50 mM sodium acetate buffer, pH 4.5 containing 50 mM NaCl and 0.03% Tween-20 in white clear bottom 384 plates (Corning #3653). 10 nM (final concentration) radioligand ([^3H]—N-((1S,2R)-1-benzyl-3-cyclopropylamino-2-hydroxy-propyl)-5-(methanesulfonyl-methyl-amino)-N—((R)-1-phenyl-ethyl)-isophthalamide) (TRQ11569 purchased from GE Healthcare) was mixed with test compound at a given concentration, 6 nM (final concentration) human BACE1 and 25 μg Streptavidin coated PVT core SPA beads (RPNQ0007, GE Healthcare Life Sciences) in a total volume of 40 μl. Several concentrations of each test compound were tested in the assay for […] determination. The plates were incubated for one hour at room temperature and counted in a Wallac Trilux counter. Total and non-specific binding were determined using buffer and 1 μM (final concentration) of the high affinity BACE1 reference inhibitor (S)-6-[3-chloro-5-(5-prop-1-ynyl-pyridin-3-yl)-thiophen-2-yl]-2-imino-3,6-dimethyl-tetrahydro-pyrimidin-4-one, respectively. For each test compound, a 1050 value (the concentration mediating 50% inhibition of the specific binding of the radioligand) was determined from concentration-response curve and used to calculate the Ki from the equation Ki=IC50/(1+L/Kd), where L and Kd are the final concentration of the radioligand used in the assay and the dissociation constant of the radioligand, respectively. The Kd of the radioligand was determined from saturation binding experiments.

human BACE1 [2] = molecular target: T1, human BACE1; assay: BACE1 efficacy assay (FRET-based, commercial BACE1 kit); format: biochemical; set-up: purchased Life Technologies P2985; settings: 10 μM test compound
Procedure: The efficacy assay was performed as a FRET-based assay using a commercially available BACE1 kit (Life Technologies, P2985). 2 μl test compound at 10 μM (final concentration) and 15 μl BACE1 enzyme from the kit (final concentration 3 nM) were preincubated for 15 minutes at room temperature before addition of 15 μl of substrate from the kit (250 nM final concentration) and incubated for additional 90 minutes at room temperature. The assay plate was subsequently read in a Pherastar (Ex540/Em590). The enzyme activity observed in presence of test compound were normalized to the enzyme activity observed in presence of buffer and 10 μM (final concentration) of the high affinity BACE1 reference inhibitor (S)-6-[3-Chloro-5-(5-prop-1-ynyl-pyridin-3-yl)-thiophen-2-yl]-2-imino-3,6-dimethyl-tetrahydropyrimidin-4-one, respectively. The efficacy of the test compounds was evaluated at 10 μM (final concentration) and defined as the percent inhibition of the enzyme activity using the equation % inhibition=100%−normalized enzyme activity in percent.

efflux ratio at 60 min, 0.5 μM (P-gp (MDR1))	pKi (human BACE1 [1])	inhibition at 10 µM (human BACE1 [2])	SMILES
0.61	7.26	103%	COc1ccc(C(=O)Nc2ccc(F)c([C@]34COC[C@H]3C[C@@](F)(CF)C(N)=N4)c2)nc1 [Example 21, N-(3-((3S,4aS,7aS)-2-amino-3-fluoro-3-(fluoromethyl)-3,4,4a,5,7,7a-hexahydrofuro[3,4-b]pyridin-7a-yl)-4-fluorophenyl)-5-methoxypicolinamide]
0.89	6.70	103%	NC1=N[C@@]2(c3cc(NC(=O)c4ccc(F)cn4)cc(F)c3F)COC[C@H]2C[C@@]1(F)CF [Example 23, N-[3-[(3S,4aS,7aS)-2-amino-3-fluoro-3-(fluoromethyl)-4,4a,5,7-tetrahydrofuro[3,4-b]pyridin-7a-yl]-4,5-difluoro-phenyl]-5-fluoro-pyridine-2-carboxamide]
0.82	6.89	103%	COc1cnc(C(=O)Nc2cc(F)c(F)c([C@]34COC[C@H]3C[C@@](F)(CF)C(N)=N4)c2)cn1 [Example 24, N-[3-[(3S,4aS,7aS)-2-amino-3-fluoro-3-(fluoromethyl)-4,4a,5,7-tetrahydrofuro[3,4-b]pyridin-7a-yl]-4,5-difluoro-phenyl]-5-methoxy-pyrazine-2-carboxamide]
